In the experiment the target is T1, human membrane progestin receptor α (hmPRα) (Homo sapiens, UniProt Q86WK9).
T1 construct: gene PAQR7; DDM-solubilized and purified over Ni-NTA, Cellufine Amino and SP-Sepharose; ~50 kDa band, theoretical 52 kDa with signal
T1 sequence (Q86WK9 1-346): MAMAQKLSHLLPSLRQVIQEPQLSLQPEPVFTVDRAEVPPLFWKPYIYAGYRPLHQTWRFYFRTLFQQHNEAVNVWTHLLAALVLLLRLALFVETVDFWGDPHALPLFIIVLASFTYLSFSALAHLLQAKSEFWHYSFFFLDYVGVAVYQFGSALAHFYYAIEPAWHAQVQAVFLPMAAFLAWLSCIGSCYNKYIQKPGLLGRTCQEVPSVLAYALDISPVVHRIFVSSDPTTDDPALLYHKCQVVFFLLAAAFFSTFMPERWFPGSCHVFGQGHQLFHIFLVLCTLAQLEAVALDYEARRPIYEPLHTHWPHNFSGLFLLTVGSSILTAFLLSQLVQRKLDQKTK
Nature of the experiment: radioligand saturation filter binding, Scatchard analysis.

A word on the Kd: it is the constant that tells how readily two partners part at equilibrium. As for `CC(=O)[C@H]1CC[C@H]2[C@@H]3CCC4=CC(=O)CC[C@]4(C)[C@H]3CC[C@]12C` [progesterone], binding was put at a Kd of 5.2 nM.

For the origin of these results see article PMC4580469, “Expression and Purification of Human Membrane Progestin Receptor α (mPRα)” (PLoS ONE, 2015).
